Results published in ChEMBL document CHEMBL1255421, “In vitro fungicidal activities of echinocandins against Candida metapsilosis, C. orthopsilosis, and C. parapsilosis evaluated by time-kill studies” (2010).
In brackets after ≈: the same amount, converted by molar mass. Activity calls are given as the source filed them. The rule behind the calls is not given here. Numbered stars: 1 amine (or outer) side, 2 acyl side, 3 side chain; on linkers, the order of the positions; unused ones are H or OH. Bridge positions count the residues as written; N and C are the ends. Square brackets hold non-standard residues; d marks the D form. Peptide text beside a SMILES is read from it. * marks the point of attachment. hTyr(3S-OH,4S-OH,3'-OSO3H) = N[C@H](C(=O)O)[C@H](O)[C@@H](O)c1ccc(O)c(OS(=O)(=O)O)c1; Orn(4R-OH,5R-OH) = O=C([C@H](C[C@@H](O)[C@@H](O)N[*:3])N[*:1])[*:2]; Pro(3S-OH,4S-Me) = C[C@H]1CN[C@H](C(=O)O)[C@H]1O; X1 = CCCCCOc1ccc(-c2cc(-c3ccc(C(=O)*)cc3)no2)cc1; Gln(3R-OH) = NC(=O)C[C@@H](O)[C@H](N)C(=O)O; Hyp = O=C(O)[C@@H]1C[C@@H](O)CN1

Experiments:
Candida metapsilosis [1] = experiment: Fungicidal activity against Candida metapsilosis isolate CP-133 bloodstream form by CLSI method; type: functional; settings: Lodderomyces metapsilosis
Candida orthopsilosis [2] = experiment: Antifungal activity against Candida orthopsilosis clinical isolate bloodstream form assessed as time required for 99.9% reduction in fungal growth at 16 mg/L by time-kill assay; type: functional
Candida metapsilosis [3] = experiment: Antifungal activity against Candida metapsilosis clinical isolate bloodstream form assessed as time required for 50% reduction in fungal growth at 32 mg/L by time-kill assay; type: functional
Candida metapsilosis [4] = experiment: Antifungal activity against Candida metapsilosis clinical isolate bloodstream form assessed as time required for 90% reduction in fungal growth at 4 mg/L by time-kill assay; type: functional
Candida metapsilosis [5] = experiment: Antifungal activity against Candida metapsilosis clinical isolate bloodstream form assessed as time required for 90% reduction in fungal growth at 0.25 mg/L by time-kill assay; type: functional
Candida parapsilosis [6] = experiment: Antifungal activity against Candida parapsilosis clinical isolate bloodstream form assessed as time required for 99.9% reduction in fungal growth at 4 mg/L by time-kill assay; type: functional
Candida metapsilosis [7] = experiment: Antifungal activity against Candida metapsilosis clinical isolate bloodstream form assessed as mild induction of fungal death at 0.03 to 32 mg/L after 6 hrs by time-kill assay; type: functional, organism-based
Candida parapsilosis [8] = experiment: Antifungal activity against Candida parapsilosis clinical isolate bloodstream form assessed as time required for 90% reduction in fungal growth at 1 mg/L by time-kill assay; type: functional
Candida metapsilosis [9] = experiment: Antifungal activity against Candida metapsilosis clinical isolate bloodstream form assessed as time required for 90% reduction in fungal growth at 16 mg/L by time-kill assay; type: functional
Candida parapsilosis [10] = experiment: Antifungal activity against Candida parapsilosis clinical isolate bloodstream form assessed as induction of fungal killing rate at 0.03 to 32 mg/L measured at 6 hrs by time-kill assay; type: functional, organism-based
Candida parapsilosis [11] = experiment: Antifungal activity against Candida parapsilosis clinical isolate bloodstream form assessed as time required for 50% reduction in fungal growth at 4 mg/L by time-kill assay; type: functional
Candida metapsilosis [12] = experiment: Antifungal activity against Candida metapsilosis clinical isolate bloodstream form assessed as time required for 99% reduction in fungal growth at 32 mg/L by time-kill assay; type: functional
Candida metapsilosis [13] = experiment: Antifungal activity against Candida metapsilosis clinical isolate bloodstream form assessed as time required for 50% reduction in fungal growth at 16 mg/L by time-kill assay; type: functional
Candida orthopsilosis [14] = experiment: Antifungal activity against Candida orthopsilosis clinical isolate bloodstream form assessed as time required for 99.9% reduction in fungal growth at 32 mg/L by time-kill assay; type: functional
Candida parapsilosis [15] = experiment: Antifungal activity against Candida parapsilosis clinical isolate bloodstream form assessed as time required for 99% reduction in fungal growth at 4 mg/L by time-kill assay; type: functional
Candida metapsilosis [16] = experiment: Antifungal activity against Candida metapsilosis clinical isolate bloodstream form assessed as time required for 99.9% reduction in fungal growth at 16 mg/L by time-kill assay; type: functional
Candida metapsilosis [17] = experiment: Antifungal activity against Candida metapsilosis clinical isolate bloodstream form assessed as time required for 90% reduction in fungal growth at 32 mg/L by time-kill assay; type: functional
Candida metapsilosis [18] = experiment: Antifungal activity against Candida metapsilosis clinical isolate bloodstream form assessed as induction of fungal killing rate at 0.03 to 32 mg/L measured at 6 hrs by time-kill assay; type: functional, organism-based
Candida orthopsilosis [19] = experiment: Fungicidal activity against Candida orthopsilosis isolate CP-151 bloodstream form by CLSI method; type: functional; settings: Lodderomyces orthopsilosis
Candida orthopsilosis [20] = experiment: Antifungal activity against Candida orthopsilosis clinical isolate bloodstream form assessed as time required for 99% reduction in fungal growth at 32 mg/L by time-kill assay; type: functional
Candida metapsilosis [21] = experiment: Fungicidal activity against Candida metapsilosis isolate CP-132 bloodstream form by CLSI method; type: functional; settings: Lodderomyces metapsilosis
Candida orthopsilosis [22] = experiment: Fungicidal activity against Candida orthopsilosis isolate CP-150 bloodstream form by CLSI method; type: functional; settings: Lodderomyces orthopsilosis
Candida orthopsilosis [23] = experiment: Antifungal activity against Candida orthopsilosis clinical isolate bloodstream form assessed as time required for 50% reduction in fungal growth at 1 mg/L by time-kill assay; type: functional
Candida orthopsilosis [24] = experiment: Antifungal activity against Candida orthopsilosis clinical isolate bloodstream form assessed as time required for 99% reduction in fungal growth at 1 mg/L by time-kill assay; type: functional
Candida parapsilosis [25] = experiment: Antifungal activity against Candida parapsilosis clinical isolate bloodstream form assessed as time required for 50% reduction in fungal growth at 1 mg/L by time-kill assay; type: functional
Candida parapsilosis [26] = experiment: Antifungal activity against Candida parapsilosis clinical isolate bloodstream form assessed as time required for 50% reduction in fungal growth at 32 mg/L by time-kill assay; type: functional
Candida orthopsilosis [27] = experiment: Antifungal activity against Candida orthopsilosis clinical isolate bloodstream form assessed as time required for 50% reduction in fungal growth at 16 mg/L by time-kill assay; type: functional
Candida parapsilosis [28] = experiment: Fungicidal activity against Candida parapsilosis ATCC 22019 bloodstream form by CLSI method; type: functional; settings: Lodderomyces parapsilosis
Candida orthopsilosis [29] = experiment: Antifungal activity against Candida orthopsilosis clinical isolate bloodstream form assessed as time required for 50% reduction in fungal growth at 32 mg/L by time-kill assay; type: functional
Candida metapsilosis [30] = experiment: Antifungal activity against Candida metapsilosis clinical isolate bloodstream form assessed as time required for 99.9% reduction in fungal growth at 0.25 mg/L by time-kill assay; type: functional
Candida parapsilosis [31] = experiment: Antifungal activity against Candida parapsilosis clinical isolate bloodstream form assessed as time required for 99.9% reduction in fungal growth at 16 mg/L by time-kill assay; type: functional
Candida orthopsilosis [32] = experiment: Antifungal activity against Candida orthopsilosis clinical isolate bloodstream form assessed as time required for 99.9% reduction in fungal growth at 4 mg/L by time-kill assay; type: functional
Candida parapsilosis [33] = experiment: Antifungal activity against Candida parapsilosis clinical isolate bloodstream form assessed as time required for 50% reduction in fungal growth at 0.25 mg/L by time-kill assay; type: functional
Candida parapsilosis [34] = experiment: Fungicidal activity against Candida parapsilosis isolate CP-301 bloodstream form by CLSI method; type: functional; settings: Lodderomyces parapsilosis
Candida orthopsilosis [35] = experiment: Antifungal activity against Candida orthopsilosis clinical isolate bloodstream form assessed as time required for 90% reduction in fungal growth at 1 mg/L by time-kill assay; type: functional
Candida orthopsilosis [36] = experiment: Antifungal activity against Candida orthopsilosis clinical isolate bloodstream form assessed as induction of fungal killing rate at 0.03 to 32 mg/L measured at 6 hrs by time-kill assay; type: functional, organism-based
Candida parapsilosis [37] = experiment: Antifungal activity against Candida parapsilosis clinical isolate bloodstream form assessed as time required for 90% reduction in fungal growth at 0.25 mg/L by time-kill assay; type: functional
Candida metapsilosis [38] = experiment: Antifungal activity against Candida metapsilosis clinical isolate bloodstream form assessed as time required for 90% reduction in fungal growth at 1 mg/L by time-kill assay; type: functional
Candida orthopsilosis [39] = experiment: Antifungal activity against Candida orthopsilosis clinical isolate bloodstream form assessed as time required for 90% reduction in fungal growth at 0.25 mg/L by time-kill assay; type: functional
Candida metapsilosis [40] = experiment: Antifungal activity against Candida metapsilosis clinical isolate bloodstream form assessed as time required for 99.9% reduction in fungal growth at 4 mg/L by time-kill assay; type: functional
Candida parapsilosis [41] = experiment: Antifungal activity against Candida parapsilosis clinical isolate bloodstream form assessed as time required for 90% reduction in fungal growth at 4 mg/L by time-kill assay; type: functional
Candida metapsilosis [42] = experiment: Antifungal activity against Candida metapsilosis clinical isolate bloodstream form assessed as time required for 99% reduction in fungal growth at 1 mg/L by time-kill assay; type: functional
Candida metapsilosis [43] = experiment: Antifungal activity against Candida metapsilosis clinical isolate bloodstream form assessed as time required for 50% reduction in fungal growth at 4 mg/L by time-kill assay; type: functional

CCCCCOc1ccc(-c2cc(-c3ccc(C(=O)N[C@H]4C[C@@H](O)[C@@H](O)NC(=O)[C@@H]5[C@@H](O)[C@@H](C)CN5C(=O)[C@H]([C@H](O)CC(N)=O)NC(=O)[C@H]([C@H](O)[C@@H](O)c5ccc(O)c(OS(=O)(=O)O)c5)NC(=O)[C@@H]5C[C@@H](O)CN5C(=O)[C@H]([C@@H](C)O)NC4=O)cc3)no2)cc1 [MICAFUNGIN] (X1-[Orn(4R-OH,5R-OH)]T[Hyp][hTyr(3S-OH,4S-OH,3'-OSO3H)][Gln(3R-OH)][Pro(3S-OH,4S-Me)]; lactam 1-C)
MIC (Candida metapsilosis [1]): 0.12 µg/mL (≈ 0.0945 µM)
Time (Candida orthopsilosis [2]): 13.76 h
Time (Candida metapsilosis [3]): 1.43 h
Time (Candida metapsilosis [4]): 5.89 h
Time (Candida metapsilosis [5]): >48 h
Time (Candida parapsilosis [6]): >48 h
Activity (Candida metapsilosis [7]): Active
Time (Candida parapsilosis [8]): inactive
Time (Candida metapsilosis [9]): 4.8 h
Activity (Candida parapsilosis [10]): inactive
Time (Candida parapsilosis [11]): 17.6 h
Time (Candida metapsilosis [12]): 9.53 h
Time (Candida metapsilosis [13]): 1.45 h
Time (Candida orthopsilosis [14]): 15.34 h
Time (Candida parapsilosis [15]): >48 h
Time (Candida metapsilosis [16]): 14.41 h
Time (Candida metapsilosis [17]): 4.76 h
Activity (Candida metapsilosis [18]): inactive
MIC (Candida orthopsilosis [19]): 0.25 µg/mL (≈ 0.197 µM)
Time (Candida orthopsilosis [20]): 10.22 h
MIC (Candida metapsilosis [21]): 0.5 µg/mL (≈ 0.394 µM)
MIC (Candida orthopsilosis [22]): 0.25 µg/mL (≈ 0.197 µM)
Time (Candida orthopsilosis [23]): 3.05 h
Time (Candida orthopsilosis [24]): 20.26 h
Time (Candida parapsilosis [25]): inactive
Time (Candida parapsilosis [26]): 6.16 h
Time (Candida orthopsilosis [27]): 1.38 h
MIC (Candida parapsilosis [28]): 0.5 µg/mL (≈ 0.394 µM)
Time (Candida orthopsilosis [29]): 1.54 h
Time (Candida metapsilosis [30]): >48 h
Time (Candida parapsilosis [31]): >48 h
Time (Candida orthopsilosis [32]): 16.59 h
Time (Candida parapsilosis [33]): inactive
MIC (Candida parapsilosis [34]): 1 µg/mL (≈ 0.787 µM)
Time (Candida orthopsilosis [35]): 10.13 h
Activity (Candida orthopsilosis [36]): inactive
Time (Candida parapsilosis [37]): inactive
Time (Candida metapsilosis [38]): 10.15 h
Time (Candida orthopsilosis [39]): >48 h
Time (Candida metapsilosis [40]): 17.68 h
Time (Candida parapsilosis [41]): >48 h
Time (Candida metapsilosis [42]): 20.3 h
Time (Candida metapsilosis [43]): 1.77 h
